Results: PubChem BioAssay (NCI)
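Protocol summary: plate cells (96-well), add compound at 5 concentrations, incubate 48 h, interpolate endpoints linearly. TGI marks complete inhibition of growth.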

Legend:
Assay in all cases: NCI tumour cell line growth inhibition, 48 h
786-0 renal = tested on: 786-0 renal
A498 renal = tested on: A498 renal
A549 NSCLC = tested on: A549 NSCLC
ACHN renal = tested on: ACHN renal
CAKI-1 renal = tested on: CAKI-1 renal
CCRF-CEM leukemia = tested on: CCRF-CEM leukemia
COLO 205 colon = tested on: COLO 205 colon
DU-145 prostate = tested on: DU-145 prostate
EKVX NSCLC = tested on: EKVX NSCLC
HCC-2998 colon = tested on: HCC-2998 colon
HCT-116 colon = tested on: HCT-116 colon
HCT-15 colon = tested on: HCT-15 colon
HL-60(TB) leukemia = tested on: HL-60(TB) leukemia
HOP-62 NSCLC = tested on: HOP-62 NSCLC
HOP-92 NSCLC = tested on: HOP-92 NSCLC
HS 578T breast = tested on: HS 578T breast
HT29 colon = tested on: HT29 colon
IGROV1 ovarian = tested on: IGROV1 ovarian
K-562 leukemia = tested on: K-562 leukemia
KM12 colon = tested on: KM12 colon
LOX IMVI melanoma = tested on: LOX IMVI melanoma
M14 melanoma = tested on: M14 melanoma
MALME-3M melanoma = tested on: MALME-3M melanoma
MCF7 breast = tested on: MCF7 breast
MDA-MB-231 breast = tested on: MDA-MB-231 breast
MDA-MB-435 = tested on: MDA-MB-435
MDA-N = tested on: MDA-N
MOLT-4 leukemia = tested on: MOLT-4 leukemia
NCI-H226 lung = tested on: NCI-H226 lung
NCI-H23 lung = tested on: NCI-H23 lung
NCI-H460 lung = tested on: NCI-H460 lung
NCI-H522 lung = tested on: NCI-H522 lung
NCI/ADR-RES ovarian = tested on: NCI/ADR-RES ovarian
OVCAR-3 ovarian = tested on: OVCAR-3 ovarian
OVCAR-4 ovarian = tested on: OVCAR-4 ovarian
OVCAR-5 ovarian = tested on: OVCAR-5 ovarian
OVCAR-8 ovarian = tested on: OVCAR-8 ovarian
PC-3 prostate = tested on: PC-3 prostate
RPMI-8226 leukemia = tested on: RPMI-8226 leukemia
RXF 393 renal = tested on: RXF 393 renal
SF-268 CNS = tested on: SF-268 CNS
SF-295 CNS = tested on: SF-295 CNS
SF-539 CNS = tested on: SF-539 CNS
SK-MEL-2 melanoma = tested on: SK-MEL-2 melanoma
SK-MEL-28 melanoma = tested on: SK-MEL-28 melanoma
SK-MEL-5 melanoma = tested on: SK-MEL-5 melanoma
SK-OV-3 ovarian = tested on: SK-OV-3 ovarian
SN12C renal = tested on: SN12C renal
SNB-19 CNS = tested on: SNB-19 CNS
SNB-75 CNS = tested on: SNB-75 CNS
SR leukemia = tested on: SR leukemia
SW-620 colon = tested on: SW-620 colon
T-47D breast = tested on: T-47D breast
TK-10 renal = tested on: TK-10 renal
U251 CNS = tested on: U251 CNS
UACC-257 melanoma = tested on: UACC-257 melanoma
UACC-62 melanoma = tested on: UACC-62 melanoma
BT-549 breast = tested on: BT-549 breast
UO-31 renal = tested on: UO-31 renal

COc1cc(Br)c(CC2C3=C(CCN2C(=O)C2CCC2)CC2(CC3)OCCO2)cc1O (stereo not drawn)
TGI (786-0 renal): > 100 µM | TGI (A498 renal): > 100 µM | TGI (A549 NSCLC): > 100 µM | TGI (ACHN renal): > 100 µM | TGI (CAKI-1 renal): > 100 µM | TGI (CCRF-CEM leukemia): > 100 µM | TGI (COLO 205 colon): 34.8 µM | TGI (DU-145 prostate): > 100 µM | TGI (EKVX NSCLC): > 100 µM | TGI (HCC-2998 colon): > 100 µM | TGI (HCT-116 colon): > 100 µM | TGI (HCT-15 colon): > 100 µM | TGI (HL-60(TB) leukemia): > 100 µM | TGI (HOP-62 NSCLC): > 100 µM | TGI (HOP-92 NSCLC): > 100 µM | TGI (HS 578T breast): > 100 µM | TGI (HT29 colon): 60.3 µM | TGI (IGROV1 ovarian): > 100 µM | TGI (K-562 leukemia): > 100 µM | TGI (KM12 colon): > 100 µM | TGI (LOX IMVI melanoma): > 100 µM | TGI (M14 melanoma): > 100 µM | TGI (MALME-3M melanoma): > 100 µM | TGI (MCF7 breast): > 100 µM | TGI (MDA-MB-231 breast): > 100 µM | TGI (MDA-MB-435): 64 µM | TGI (MDA-N): > 100 µM | TGI (MOLT-4 leukemia): > 100 µM | TGI (NCI-H226 lung): > 100 µM | TGI (NCI-H23 lung): 79.7 µM | TGI (NCI-H460 lung): > 100 µM | TGI (NCI-H522 lung): 98.4 µM | TGI (NCI/ADR-RES ovarian): > 100 µM | TGI (OVCAR-3 ovarian): > 100 µM | TGI (OVCAR-4 ovarian): > 100 µM | TGI (OVCAR-5 ovarian): > 100 µM | TGI (OVCAR-8 ovarian): > 100 µM | TGI (PC-3 prostate): > 100 µM | TGI (RPMI-8226 leukemia): > 100 µM | TGI (RXF 393 renal): 44.4 µM | TGI (SF-268 CNS): > 100 µM | TGI (SF-295 CNS): > 100 µM | TGI (SF-539 CNS): > 100 µM | TGI (SK-MEL-2 melanoma): > 100 µM | TGI (SK-MEL-28 melanoma): > 100 µM | TGI (SK-MEL-5 melanoma): > 100 µM | TGI (SK-OV-3 ovarian): > 100 µM | TGI (SN12C renal): > 100 µM | TGI (SNB-19 CNS): > 100 µM | TGI (SNB-75 CNS): 76.8 µM | TGI (SR leukemia): > 100 µM | TGI (SW-620 colon): > 100 µM | TGI (T-47D breast): > 100 µM | TGI (TK-10 renal): > 100 µM | TGI (U251 CNS): > 100 µM | TGI (UACC-257 melanoma): > 100 µM | TGI (UACC-62 melanoma): > 100 µM

O=C1c2ccccc2CC12CCC1(CC2)OCCO1
TGI (786-0 renal): > 100 µM | TGI (A549 NSCLC): > 100 µM | TGI (ACHN renal): > 100 µM | TGI (BT-549 breast): > 100 µM | TGI (CAKI-1 renal): > 100 µM | TGI (CCRF-CEM leukemia): > 100 µM | TGI (COLO 205 colon): > 100 µM | TGI (DU-145 prostate): > 100 µM | TGI (EKVX NSCLC): > 100 µM | TGI (HCC-2998 colon): > 100 µM | TGI (HCT-116 colon): > 100 µM | TGI (HCT-15 colon): > 100 µM | TGI (HL-60(TB) leukemia): > 100 µM | TGI (HOP-62 NSCLC): > 100 µM | TGI (HS 578T breast): > 100 µM | TGI (HT29 colon): > 100 µM | TGI (IGROV1 ovarian): > 100 µM | TGI (K-562 leukemia): > 100 µM | TGI (KM12 colon): > 100 µM | TGI (LOX IMVI melanoma): > 100 µM | TGI (M14 melanoma): > 100 µM | TGI (MALME-3M melanoma): > 100 µM | TGI (MCF7 breast): > 100 µM | TGI (MDA-MB-231 breast): > 100 µM | TGI (MDA-N): > 100 µM | TGI (MOLT-4 leukemia): > 100 µM | TGI (NCI-H226 lung): > 100 µM | TGI (NCI-H23 lung): > 100 µM | TGI (NCI-H460 lung): > 100 µM | TGI (NCI-H522 lung): > 100 µM | TGI (NCI/ADR-RES ovarian): > 100 µM | TGI (OVCAR-4 ovarian): > 100 µM | TGI (OVCAR-5 ovarian): > 100 µM | TGI (OVCAR-8 ovarian): > 100 µM | TGI (PC-3 prostate): > 100 µM | TGI (RPMI-8226 leukemia): > 100 µM | TGI (RXF 393 renal): > 100 µM | TGI (SF-268 CNS): > 100 µM | TGI (SF-295 CNS): > 100 µM | TGI (SF-539 CNS): > 100 µM | TGI (SK-MEL-2 melanoma): > 100 µM | TGI (SK-MEL-28 melanoma): > 100 µM | TGI (SK-OV-3 ovarian): > 100 µM | TGI (SN12C renal): > 100 µM | TGI (SNB-19 CNS): > 100 µM | TGI (SNB-75 CNS): > 100 µM | TGI (SR leukemia): > 100 µM | TGI (SW-620 colon): > 100 µM | TGI (T-47D breast): > 100 µM | TGI (TK-10 renal): > 100 µM | TGI (U251 CNS): > 100 µM | TGI (UACC-257 melanoma): > 100 µM | TGI (UACC-62 melanoma): > 100 µM | TGI (UO-31 renal): > 100 µM

CCCCNC(=O)OCCN=C1c2ccccc2C(Br)C(Br)c2ccccc21 (stereo not drawn)
TGI (786-0 renal): 28.3 µM | TGI (A498 renal): > 100 µM | TGI (A549 NSCLC): > 100 µM | TGI (ACHN renal): 62.4 µM | TGI (CAKI-1 renal): 49.2 µM | TGI (CCRF-CEM leukemia): > 100 µM | TGI (COLO 205 colon): 44.7 µM | TGI (DU-145 prostate): > 100 µM | TGI (EKVX NSCLC): > 100 µM | TGI (HCC-2998 colon): > 100 µM | TGI (HCT-116 colon): 60.5 µM | TGI (HCT-15 colon): 38.2 µM | TGI (HL-60(TB) leukemia): 37.6 µM | TGI (HOP-62 NSCLC): > 100 µM | TGI (HOP-92 NSCLC): 37.1 µM | TGI (HS 578T breast): > 100 µM | TGI (HT29 colon): 58.3 µM | TGI (IGROV1 ovarian): > 100 µM | TGI (K-562 leukemia): > 100 µM | TGI (KM12 colon): > 100 µM | TGI (LOX IMVI melanoma): 47.2 µM | TGI (M14 melanoma): 40.2 µM | TGI (MALME-3M melanoma): 52.9 µM | TGI (MCF7 breast): > 100 µM | TGI (MDA-MB-231 breast): > 100 µM | TGI (MDA-MB-435): 57 µM | TGI (MDA-N): 31.7 µM | TGI (MOLT-4 leukemia): 84.1 µM | TGI (NCI-H226 lung): > 100 µM | TGI (NCI-H23 lung): > 100 µM | TGI (NCI-H460 lung): > 100 µM | TGI (NCI-H522 lung): 73 µM | TGI (NCI/ADR-RES ovarian): 47.2 µM | TGI (OVCAR-3 ovarian): 46.1 µM | TGI (OVCAR-4 ovarian): 59.6 µM | TGI (OVCAR-5 ovarian): > 100 µM | TGI (OVCAR-8 ovarian): 58.9 µM | TGI (PC-3 prostate): > 100 µM | TGI (RPMI-8226 leukemia): 62.1 µM | TGI (RXF 393 renal): 34.8 µM | TGI (SF-268 CNS): > 100 µM | TGI (SF-295 CNS): > 100 µM | TGI (SF-539 CNS): > 100 µM | TGI (SK-MEL-2 melanoma): > 100 µM | TGI (SK-MEL-28 melanoma): > 100 µM | TGI (SK-MEL-5 melanoma): 50.3 µM | TGI (SK-OV-3 ovarian): > 100 µM | TGI (SN12C renal): > 100 µM | TGI (SNB-19 CNS): 55.3 µM | TGI (SNB-75 CNS): > 100 µM | TGI (SR leukemia): > 100 µM | TGI (SW-620 colon): > 100 µM | TGI (T-47D breast): > 100 µM | TGI (TK-10 renal): 52.2 µM | TGI (U251 CNS): 62.5 µM | TGI (UACC-257 melanoma): 76.2 µM | TGI (UACC-62 melanoma): > 100 µM
